Assay results as given in patent US9199948B2, “1,3-benzoxazol-2(3H)-ones and their use as medicaments and cosmetics” (DR. AUGUST WOLFF GMBH & CO. KG ARZNEIMITTEL, priority 2012, dated 2015).

System: Arachidonoylethanolamide Transport (AEAT) in U937 cells
Test: Cellular uptake of [3H]-AEA (inhibition of arachidonoylethanolamide transport, AEAT)
Format: cell-based
Settings: Homo sapiens, U-937, 100 nM AEA, 15 min pre-incubation, 15 min uptake at 37° C.
Protocol: C. Cellular Uptake of [^3H]-AEA
Human lymphoma U937 cells were grown in RPMI 1640 medium (Invitrogen, Basel, Switzerland) supplemented with 10% fetal bovine serum, […] fungizone (amphotericin B), 100 units/ml penicillin, 100 µg/ml streptomycin, and 2 mM L-glutamine (all from Invitrogen) and selected for the cellular AEA uptake assay. 2.5×10^6 cells were collected and suspended in 250 μl of RPMI 1640 medium (Invitrogen, Basel, Switzerland) at 37° C. using glass silanized vials. Cells were pre-incubated 15 min at 37° C. in presence of test compounds in a concentration range of 10^−11−10^−5 M or in presence of the same amount (5 μl) of vehicle control (DMSO). Then a mixture of 0.5 nM [^3H]-AEA (60 Ci/mmol) (American Radiolabeled Chemicals, Inc., San Louis, Mo., US) and 99.5 nM of nonradioactive AEA (Tocris Cookson Ltd., Bristol, UK) resulting in a final concentration of 100 nM AEA was added and samples were incubated at 37° C. for another 15 minutes. […] Radioactivity was measured using a Perkin Elmer 1450 Microbeta TRILUX liquid scintillation counter. Results were expressed as % of AEA uptake versus cells treated with solvent and the EC50 and IC50 values were calculated from the sigmoidal curves, which were generated using the GraphPad Prism 5.0 (GraphPad Software, San Diego, Calif., US).

Row | Compound | EC50 [nM]
1 | CCCCCCC/C=C/C=C/CNC(=O)c1ccc2oc(=O)[nH]c2c1 [Example 4] | 146
2 | Cn1c(=O)oc2ccc(NC(=O)/C=C/C=C/CCc3ccccc3)cc21 [Example 10] | 112
